Tests used:
Assay in all cases: relative viability (nuclei count vs DMSO), 5 days (fraction); higher = more cells survive
[1] = test system: ABC-1
Summary of the method: (§1)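 A single step with final 0.05% Triton X-100, 1% formaldehyde and 1 ug/ml Hoechst fixed the cells and stained nuclei 5 days after treatment. Lung cancer cell lines in 1536-well plates had been treated by pin tool the day after seeding with one drug alone or a fixed anchor-drug dose plus five library-drug doses (not always all listed) in √10 steps, and nuclei were counted on 4× images. Relative viability is the ratio of nuclei in treated wells to nuclei in vehicle wells, taken as the median of duplicate plates.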

[2] = test system: CAL-12T
Summary of the method: as §1

[3] = test system: COR-L 105
Summary of the method: as §1

[4] = test system: EMC-BAC-2
Summary of the method: as §1

[5] = test system: EPLC-272H
Summary of the method: as §1

[6] = test system: HCC-15
Summary of the method: as §1

[7] = test system: HCC-78
Summary of the method: as §1

[8] = test system: HOP-62
Summary of the method: as §1

[9] = test system: LXF-289
Summary of the method: as §1

[10] = test system: NCI-H1666
Summary of the method: as §1

[11] = test system: NCI-H1755
Summary of the method: as §1

[12] = test system: NCI-H1915
Summary of the method: as §1

[13] = test system: NCI-H1975
Summary of the method: as §1

[14] = test system: NCI-H2023
Summary of the method: as §1

[15] = test system: NCI-H2085
Summary of the method: as §1

[16] = test system: NCI-H2126
Summary of the method: as §1

[17] = test system: NCI-H3122
Summary of the method: as §1

[18] = test system: NCI-H322M
Summary of the method: as §1

[19] = test system: NCI-H358
Summary of the method: as §1

[20] = test system: UMC-11
Summary of the method: as §1

With O=c1cc(N2CCOCC2)oc2c(-c3cccc4c3sc3ccccc34)cccc12 + CS(=O)(=O)CCNCc1ccc(-c2ccc3ncnc(Nc4ccc(OCc5cccc(F)c5)c(Cl)c4)c3c2)o1 [Lapatinib] (partner 2 µM) the relative viability ([1]; first compound 0.01 µM) was 1.07, the relative viability ([1]; first compound 0.03162 µM) was 1.07 and the relative viability ([1]; first compound 0.1 µM) was 1.6. It also gave a relative viability ([1]; first compound 0.3162 µM) of 1.04, a relative viability ([1]; first compound 1 µM) of 1.2 and a relative viability ([2]; first compound 0.01 µM) of 0.707. It also gave a relative viability ([2]; first compound 0.1 µM) of 0.662, a relative viability ([2]; first compound 0.3162 µM) of 0.671 and a relative viability ([2]; first compound 1 µM) of 0.691. For the same molecule, the relative viability ([3]; first compound 0.01 µM) was 0.384, the relative viability ([3]; first compound 0.03162 µM) was 0.327 and the relative viability ([3]; first compound 0.1 µM) was 0.397. For the same molecule, the relative viability ([3]; first compound 0.3162 µM) was 0.379, the relative viability ([3]; first compound 1 µM) was 0.412 and the relative viability ([4]; first compound 0.01 µM) was 0.732. For the same molecule, the relative viability ([4]; first compound 0.03162 µM) was 0.946, the relative viability ([4]; first compound 0.1 µM) was 0.97 and the relative viability ([4]; first compound 0.3162 µM) was 0.893. It also gave a relative viability ([4]; first compound 1 µM) of 0.848, a relative viability ([5]; first compound 0.01 µM) of 1.15 and a relative viability ([5]; first compound 0.03162 µM) of 1.12. It also gave a relative viability ([5]; first compound 0.3162 µM) of 0.928, a relative viability ([5]; first compound 1 µM) of 0.825 and a relative viability ([6]; first compound 0.01 µM) of 0.823. For the same molecule, the relative viability ([6]; first compound 0.03162 µM) was 0.881, the relative viability ([6]; first compound 0.1 µM) was 0.999 and the relative viability ([6]; first compound 0.3162 µM) was 0.871. It also gave a relative viability ([6]; first compound 1 µM) of 0.86, a relative viability ([7]; first compound 0.01 µM) of 1.03 and a relative viability ([7]; first compound 0.03162 µM) of 0.856. For the same molecule, the relative viability ([7]; first compound 0.1 µM) was 0.785, the relative viability ([7]; first compound 0.3162 µM) was 0.785 and the relative viability ([7]; first compound 1 µM) was 0.652. The relative viability ([8]; first compound 0.01 µM) was 0.996, the relative viability ([8]; first compound 0.03162 µM) was 0.856 and the relative viability ([8]; first compound 0.1 µM) was 0.821. For the same molecule, the relative viability ([8]; first compound 0.3162 µM) was 0.958, the relative viability ([8]; first compound 1 µM) was 1.17 and the relative viability ([9]; first compound 0.01 µM) was 0.872. The relative viability ([9]; first compound 0.03162 µM) was 0.881, the relative viability ([9]; first compound 0.1 µM) was 0.89 and the relative viability ([9]; first compound 0.3162 µM) was 0.897. The relative viability ([9]; first compound 1 µM) was 0.946, the relative viability ([10]; first compound 0.01 µM) was 0.555 and the relative viability ([10]; first compound 0.03162 µM) was 0.735. The relative viability ([10]; first compound 0.1 µM) was 0.715, the relative viability ([10]; first compound 0.3162 µM) was 0.614 and the relative viability ([10]; first compound 1 µM) was 0.591. It also gave a relative viability ([11]; first compound 0.01 µM) of 0.81, a relative viability ([11]; first compound 0.03162 µM) of 1.02 and a relative viability ([11]; first compound 0.1 µM) of 1.02. For the same molecule, the relative viability ([11]; first compound 0.3162 µM) was 1.04, the relative viability ([11]; first compound 1 µM) was 1.07 and the relative viability ([12]; first compound 0.01 µM) was 1.05. It also gave a relative viability ([12]; first compound 0.03162 µM) of 1.05, a relative viability ([12]; first compound 0.1 µM) of 0.957 and a relative viability ([12]; first compound 0.3162 µM) of 0.977. It also gave a relative viability ([12]; first compound 1 µM) of 1.05, a relative viability ([13]; first compound 0.01 µM) of 0.856 and a relative viability ([13]; first compound 0.03162 µM) of 0.84. For the same molecule, the relative viability ([13]; first compound 0.1 µM) was 0.848, the relative viability ([13]; first compound 0.3162 µM) was 0.849 and the relative viability ([13]; first compound 1 µM) was 0.826. It also gave a relative viability ([14]; first compound 0.01 µM) of 0.88, a relative viability ([14]; first compound 0.03162 µM) of 0.975 and a relative viability ([14]; first compound 0.1 µM) of 0.882. For the same molecule, the relative viability ([14]; first compound 0.3162 µM) was 0.826, the relative viability ([14]; first compound 1 µM) was 0.887 and the relative viability ([15]; first compound 0.01 µM) was 0.796. The relative viability ([15]; first compound 0.03162 µM) was 0.757, the relative viability ([15]; first compound 0.1 µM) was 0.775 and the relative viability ([15]; first compound 0.3162 µM) was 0.734. It also gave a relative viability ([15]; first compound 1 µM) of 0.751, a relative viability ([16]; first compound 0.01 µM) of 0.826 and a relative viability ([16]; first compound 0.03162 µM) of 0.768. It also gave a relative viability ([16]; first compound 0.1 µM) of 0.758, a relative viability ([16]; first compound 0.3162 µM) of 0.748 and a relative viability ([16]; first compound 1 µM) of 0.718. It also gave a relative viability ([17]; first compound 0.01 µM) of 1.04, a relative viability ([17]; first compound 0.03162 µM) of 0.961 and a relative viability ([17]; first compound 0.1 µM) of 1.03. For the same molecule, the relative viability ([17]; first compound 0.3162 µM) was 0.953, the relative viability ([17]; first compound 1 µM) was 0.97 and the relative viability ([18]; first compound 0.01 µM) was 0.584. The relative viability ([18]; first compound 0.03162 µM) was 0.6, the relative viability ([18]; first compound 0.3162 µM) was 0.577 and the relative viability ([18]; first compound 1 µM) was 0.455. The relative viability ([19]; first compound 0.01 µM) was 0.515, the relative viability ([19]; first compound 0.03162 µM) was 0.478 and the relative viability ([19]; first compound 0.1 µM) was 0.482. The relative viability ([19]; first compound 0.3162 µM) was 0.467, the relative viability ([19]; first compound 1 µM) was 0.433 and the relative viability ([20]; first compound 0.01 µM) was 0.997. The relative viability ([20]; first compound 0.03162 µM) was 1.03, the relative viability ([20]; first compound 0.1 µM) was 1.17 and the relative viability ([20]; first compound 0.3162 µM) was 0.995. The relative viability ([20]; first compound 1 µM) was 0.951.

Source: the supplement of paper PMC10307832
